Values after ≈ are worked out from the molar mass of the structure shown. Like-named read-outs stand apart in the source and are kept apart here.
What was measured:
[1] = system: Leishmania amazonensis promastigotes; test: In vitro leishmanicidal activity (resazurin viability) against promastigotes; format: cell-based; settings: for Activity against L. amazonensis promastigotes in words: concentrations up to 1000.0 μg mL^−1
Experimental: Culture of L. amazonensis (LTCP 9667 obtained by Giudice et al.) promastigotes were maintained at 24 °C in Schneider′s Drosophila medium (Sigma-Aldrich, St. Louis, MO, USA; pH 6.7) supplemented with 10% (v/v) inactivated fetal bovine serum (FBS, Gibco by Thermo Fisher Scientific, Carlsbad, CA, USA), ampicillin 500 mg m^−1, 1% and gentamicin 40 mg mL^−1, 0.1% (Sigma-Aldrich, St. Louis, MO, USA).
Promastigotes of L. amazonensis in log-phase growth were distributed in a 96-well plate (5 × 10^5 cells/well) and treated with the evaluated compounds solubilized in dimethyl sulfoxide (DMSO, Sigma-Aldrich, St. Louis, MO, USA) and diluted in Schneider′s medium in different concentrations (between 0.0 and 1000.0 μg mL^−1) and incubated for 24 h at 24 °C in a biochemical oxygen demand (BOD) incubator. Promastigotes incubated in the absence of test compounds were used as a negative control. Promastigotes treated with Amphotericin B (Sigma-Aldrich, St. Louis, MO, USA) were used as a positive control. The cellular viability of the parasites was evaluated using the colorimetric method of resazurin, adapted from Kulshrestha et al.. Briefly, after the treatment time, 50 μL of resazurin (2 mM mL^−1 in phosphate-buffered saline (PBS)) (Sigma-Aldrich, St. Louis, MO, USA) was added per well and the plates were again incubated for 6 h at 24 °C, then read in a spectrophotometer (Synerg H1, Biotek, Winooski, VT, USA) at 570 and 595 nm. Absorbance was used to calculate cell viability based on the following equation:(1) Viability (%)=Abs.570 nm−(Abs.595 nm × RO) test/Abs.570 nm –(Abs.595 nm × RO) control × 100 wherein:(2) RO= OD medium with resazurin in 570 nm−OD medium without resasurin in 570 nm/OD medium with resazurin in 595 nm−OD medium without resazurin in 595 nm
The IC50 values were obtained by a non-linear regression analysis from the viability values using the GraphPad Prism 5.0 program. All experiments were performed in triplicate from three independent experiments and the data were expressed as mean ± standard deviation (±SD).

[2] = Cytotoxicity on L929 fibroblasts (MTT assay); format: cell-based; settings: mouse, MTT, mean ± SD; for viability at 24 h, 50 µg mL^−1: 50 µg mL^−1, 24 h; for viability at 24 h, 100 µg mL^−1: 100 µg mL^−1, 24 h
Experimental: (§1) Culture of the mouse fibroblast cell line (L929, ATCC CCL-1) were maintained in Dulbecco′s Modified Eagle Medium (DMEM, Sigma-Aldrich, St. Louis, MO, USA) supplemented with 10% heat-inactivated FBS and 1% streptomycin/penicillin (5000 units + 5 mg mL^−1, Sigma-Aldrich, St. Louis, MO, USA), and kept in a humid atmosphere at 37 °C and 5% CO2.
(§2) Fibroblasts were distributed in 96-well plates (2 × 10^4 cells/well) and incubated for 24 h in a 5% CO2 atmosphere at 37 °C. After this period, the medium was removed and the adhered cells were treated with the compounds at concentrations of 50.0 and 100.0 μg mL^−1 for 24 h under the same incubation conditions. Untreated cells were used as controls and considered with 100% cell viability. After the treatment period, cell viability was determined by MTT assay as described in ISO 10993-5 [50], with modifications. For this, the cell monolayer was washed twice with PBS (pH 7.4), and then 200 μl MTT (0.5 mg mL^−1 in PBS, Sigma-Aldrich, St. Louis, MO, USA) was added to each well. The plates were again incubated under the same conditions as listed above, for a period of 3 h. After the incubation time, the MTT was aspirated and the formazan crystals were solubilized in 200 μL of DMSO. After 10 min, the optical density (OD) was measured on a microplate reader at the wavelength of 570 nm. The results were expressed as percentage of viability according to the following equation:(3) Viability=Absorbance (treated cell)/Absorbance (control cell) × 100
(§3) Each experiment was conducted in quadruplicate and repeated at least three times. Data were expressed as mean ± standard deviation (±SD).

[3] = system: L. chagasi promastigotes; settings: cited from earlier work
[4] = system: L. amazonensis promastigotes; settings: cited from earlier work
[5] = system: promastigotes of L. infantum chagasi; set-up: method as in PMID 27591136; settings: up to the dose of 750 μg mL^−1; cited from earlier work
[6] = system: L929 fibroblasts; test: Cytotoxicity on L929 fibroblasts (MTT assay); format: cell-based; settings: intensity scale of Rodrigues et al.; for Cytotoxicity class (symbol) at 50 µg mL^−1: 50 µg mL^−1, 24 h; for Cytotoxicity class (symbol) at 50 µg mL^−1 / Cytotoxicity class (symbol) at 100 µg mL^−1: MTT; for Cytotoxicity class (symbol) at 100 µg mL^−1: 100 µg mL^−1, 24 h
Experimental: as §1, §2, §3

[7] = system: L. donovani promastigotes; set-up: method as in PMID 18095647; settings: cited from earlier work
[8] = system: promastigotes of L. infantum; set-up: method as in PMID 24365244; settings: doses up to 400 μg mL^−1; cited from earlier work
[9] = system: promastigotes of L. tropica; set-up: method as in PMID 24365244; settings: doses up to 400 μg mL^−1; cited from earlier work
[10] = system: promastigotes of L. major; set-up: method as in PMID 24365244; settings: doses up to 400 μg mL^−1; cited from earlier work
[11] = system: L. panamensis; set-up: method as in earlier work; settings: cited from earlier work
[12] = Leishmania amazonensis, 24 h, promastigotes, 24 h incubation, resazurin method, mean ± SD of three independent experiments in triplicate, read-out: IC50
[13] = Leishmania amazonensis, 24 h, promastigotes, 24 h incubation, resazurin method, mean ± SD of three independent experiments in triplicate, read-out: IC50 (µg mL^−1)
[14] = L. chagasi promastigotes, ref 28
[15] = Leishmania amazonensis, 24 h, read-out: IC50 (µg mL^−1)

In the case of C=C(C)[C@@H]1CC=C(C)C(=O)C1 [(−)-Carvone, (5R)-2-methyl-5-prop-1-en-2-ylcyclohex-2-en-1-one], the IC50 [1, 12] is reported as 1300 ± 113 µM, the IC50 [1, 13] is reported as 195 ± 16.9 µg/mL and the viability at 24 h, 50 µg mL^−1 [2] is reported as 65.1 ± 4.7%. The viability at 24 h, 100 µg mL^−1 [2] was 58.2 ± 4.2% and the IC50 [3, 14] was > 300.0 µg/mL.

Work on C=C[C@](C)(O)CCC=C(C)C [(−)-Linalool, (3R)-3,7-dimethylocta-1,6-dien-3-ol] yielded an IC50 [1, 12] of 1790 ± 156 µM, an IC50 [1, 13] of 276 ± 24 µg/mL and a viability at 24 h, 50 µg mL^−1 ([2]; L929 fibroblast cells) of 65.7 ± 8.2%. For the same molecule, the viability at 24 h, 100 µg mL^−1 ([2]; L929 fibroblast cells) was 66.7 ± 7.8%, the IC50 ([4]; L. amazonensis promastigotes) was 0.0043 µg/mL (≈ 0.0279 µM) and the “Changes in the viability of promastigotes in words” value [5] was “did not identify changes in the viability”.

For CC(C)[C@@H]1CC[C@@H](C)C[C@H]1O [(−)-Menthol, (1R,2S,5R)-5-methyl-2-propan-2-ylcyclohexan-1-ol], the IC50 [1, 12] was 1270 ± 76.8 µM, the IC50 [1, 13] was 198 µg/mL and the “IC50” value ([1]; promastigotes, 24 h incubation, resazurin method, mean ± SD of three independent experiments in triplicate, listed as (–)-Menthol (7)) was 198.9 ± 12.0 µg/mL. The viability at 24 h, 50 µg mL^−1 ([2]; L929 fibroblast cells) was 83.8 ± 8%, the viability at 24 h, 100 µg mL^−1 ([2]; L929 fibroblast cells) was 81.2 ± 2.4% and the “Cytotoxicity class (symbol) at 50 µg mL^−1” value [6] was “** (Non-cytotoxic (viability >80%))”. For the same molecule, the “Cytotoxicity classification in words at 50.0 μg mL^−1” value [6] was “non-cytotoxic” and the “Cytotoxicity class (symbol) at 100 µg mL^−1” value [6] was “** (Non-cytotoxic (viability >80%))”.

With C[C@@H]1[C@H](O)[C@@H](C)/C=C/C=C/C=C/C=C/C=C/C=C/C=C/[C@H](O[C@@H]2O[C@H](C)[C@@H](O)[C@H](N)[C@@H]2O)C[C@@H]2O[C@](O)(C[C@@H](O)C[C@@H](O)[C@H](O)CC[C@@H](O)C[C@@H](O)CC(=O)O[C@H]1C)C[C@H](O)[C@H]2C(=O)O [Amphotericin B, reference compound] the IC50 [1, 12] was 0.054 ± 0.01 µM and the IC50 [1, 13] was 0.05 ± 0.01 µg/mL.

Cc1ccc(C(C)C)cc1O [Carvacrol, 2-methyl-5-propan-2-ylphenol] gave an IC50 ([1]; Leishmania amazonensis, 24 h) of 169 ± 16 µM, an IC50 [1, 15] of 25.4 ± 2.4 µg/mL and a viability at 24 h, 50 µg mL^−1 ([2]; L929 fibroblast cells) of 51.3 ± 3%. The viability at 24 h, 100 µg mL^−1 ([2]; L929 fibroblast cells) was 46.1 ± 2.9%, the “Cytotoxicity class (symbol) at 100 µg mL^−1” value [6] was “* (Moderate cytotoxicity (viability between >30% and <50%))” and the “Cytotoxicity classification in words at 100.0 μg mL^−1” value [6] was “moderate cytotoxicity”. For the same molecule, the IC50 ([3]; L. chagasi promastigotes, ref 27) was 2.3 µg/mL (≈ 15.3 µM), the IC50 [3, 14] was 28.0 µg/mL (≈ 186 µM) and the IC50 ([4]; L. amazonensis promastigotes, 72 h incubation, p-nitrophenol phosphate) was 15.3 µg/mL (≈ 102 µM).

Work on CC1=CCC2C(C1)C2(C)C (stereo not shown) [Compound 3-Carene, 4,7,7-trimethylbicyclo[4.1.0]hept-3-ene] yielded an IC50 [1, 12] of 532 ± 136 µM, an IC50 [1, 13] of 72.5 ± 18.5 µg/mL and a viability at 24 h, 50 µg mL^−1 ([2]; L929 fibroblast cells) of 84.1 ± 6.4%. The viability at 24 h, 100 µg mL^−1 ([2]; L929 fibroblast cells) was 48.7 ± 6.7%, the “Cytotoxicity class (symbol) at 50 µg mL^−1” value [6] was “** (Non-cytotoxic (viability >80%))” and the “Cytotoxicity classification in words at 50.0 μg mL^−1” value [6] was “non-cytotoxic”. For the same molecule, the “Cytotoxicity class (symbol) at 100 µg mL^−1” value [6] was “* (Moderate cytotoxicity (viability between >30% and <50%))”, the “Cytotoxicity classification in words at 100.0 μg mL^−1” value [6] was “moderate cytotoxicity” and the IC50 [7] was 27.0 µg/mL (≈ 198 µM).

C=CCc1ccc(O)c(OC)c1 [Eugenol, 2-methoxy-4-prop-2-enylphenol] showed an IC50 ([1]; Leishmania amazonensis, 24 h) of 505 ± 37.8 µM, an IC50 [1, 15] of 82.9 ± 6.2 µg/mL and a viability at 24 h, 50 µg mL^−1 ([2]; L929 fibroblast cells) of 78.1 ± 7%. The viability at 24 h, 100 µg mL^−1 ([2]; L929 fibroblast cells) was 63.1 ± 1.7% and the IC50 ([3]; promastigote forms of L. chagasi) was 56.1 µg/mL (≈ 342 µM).

CC1(C)[C@@H]2CC[C@@]1(C)[C@H](O)C2 [Isoborneol, (1R,3R,4R)-4,7,7-trimethylbicyclo[2.2.1]heptan-3-ol] showed an IC50 [1, 12] of 1230 ± 63.5 µM, an IC50 [1, 13] of 190 ± 9.8 µg/mL and a viability at 24 h, 50 µg mL^−1 ([2]; L929 fibroblast cells) of 73.3 ± 9.4%. For the same molecule, the viability at 24 h, 100 µg mL^−1 ([2]; L929 fibroblast cells) was 72.9 ± 7.5%, the “Leishmanicidal activity in words” value [8] was “No leishmanicidal activity was found” and the “Leishmanicidal activity in words” value [9] was “No leishmanicidal activity was found”. The “Leishmanicidal activity in words” value [10] was “No leishmanicidal activity was found”.

For Cc1ccc(C(C)C)c(O)c1 [Thymol, 5-methyl-2-propan-2-ylphenol], the IC50 [1, 12] was 178 ± 24.6 µM, the IC50 [1, 13] was 26.8 ± 3.7 µg/mL and the viability at 24 h, 50 µg mL^−1 ([2]; L929 fibroblast cells) was 64.5 ± 4%. For the same molecule, the viability at 24 h, 100 µg mL^−1 ([2]; L929 fibroblast cells) was 58.5 ± 6.7%, the IC50 ([4]; L. amazonensis) was 22.6 µg/mL (≈ 150 µM) and the IC50 [11] was 194.3 µg/mL (≈ 1290 µM).

With Cc1ccc(C(C)C)cc1 [p-Cymene, 1-methyl-4-propan-2-ylbenzene] the IC50 [1, 12] was > 7450 µM, the IC50 [1, 13] was > 1000 µg/mL and the “Activity against L. amazonensis promastigotes in words” value [1] was “no effect on the viability”. For the same molecule, the “Activity against L. amazonensis promastigotes in words” value ([1]; listed as p-cymene) was “did not exhibit any activity”, the viability at 24 h, 50 µg mL^−1 ([2]; L929 fibroblast cells) was 91.2 ± 6.6% and the viability at 24 h, 100 µg mL^−1 ([2]; L929 fibroblast cells) was 87.1 ± 6.7%. The “Cytotoxicity class (symbol) at 50 µg mL^−1” value [6] was “** (Non-cytotoxic (viability >80%))”, the “Cytotoxicity classification in words at 50.0 μg mL^−1” value [6] was “non-cytotoxic” and the “Cytotoxicity class (symbol) at 100 µg mL^−1” value [6] was “** (Non-cytotoxic (viability >80%))”. For the same molecule, the IC50 [3, 14] was 149.1 µg/mL (≈ 1110 µM).

Reference: paper PMC6154737, “Leishmanicidal Activity and Structure-Activity Relationships of Essential Oil Constituents” (Molecules : A Journal of Synthetic Chemistry and Natural …, 2017)
